Measured values from patent publication US20100041710A1, “PENETRATION ENHANCER FOR INSECTICIDES” (priority 2006, published 2010).
Where two headings read alike, the source gives them in different places.

How the values were obtained:
crop plant = test: Crop plant tolerance tests; conditions: compared with other alkyl ester additives
[1] = Procedure: In this test, the penetration of active substances through enzymatically isolated cuticles of apple tree leaves was measured. The cuticles represent all green plant parts, such as leaf blade, petiole, stalk, trunk, hypocotyl and many fruits.
Leaves which were cut off in the stage of full development of apple trees of the Golden Delicious variety were used. The isolation of the cuticles was effected in a manner such that • first, leaf disks marked on the underside with dye and punched out were filled by means of vacuum infiltration with a pectinase solution (0.2 to 2% strength by weight) buffered to a pH between 3 and 4, • sodium azide was then added and • the leaf disks thus treated were allowed to stand until disintegration of the original leaf structure and detachment of the noncellular cuticle.
Thereafter, only those cuticles of the upper sides of the leaves which were free of stomata and hairs were further used. They were washed several times alternately with water and a buffer solution at pH 7. The cleaned cuticles obtained were finally drawn onto small Teflon plates and smoothed and dried with a gentle air jet.
In the next step, the cuticle membranes thus obtained were placed in stainless steel diffusion cells (=transport chambers) for membrane transport investigations. For this purpose, the cuticles were placed by means of forceps centrally on the silicone grease-coated edges of the diffusion cells and closed with a likewise greased ring. The arrangement was chosen so that the morphological outside of the cuticles faced outward, i.e. toward the air, while the original inside faced the interior of the diffusion cell. The diffusion cells were filled with water or with a mixture of water and solvent.
For determining the penetration, in each case 10 μl of a spray liquor of the composition mentioned in the examples were applied to the outside of a cuticle.
In each case the solvents listed below in the table (tap water or a mixture with 20% by weight of acetone/80% by weight of tap water) were used in the spray liquors.
After the application of the spray liquors, in each case the solvent was allowed to evaporate, and in each case the chambers were then turned around and placed in thermostated trays, air having a defined temperature and atmospheric humidity being blown onto the outside of the cuticle. The incipient penetration therefore took place at a relative humidity of 60% and a set temperature of 20 or 25° C. The active substance penetration was measured with radioactively marked active substance.

[2] = Table 3, 0.1 g/l of imidacloprid in tap water, apple leaf cuticles, 20-25° C., rel. humidity 56-60%, mean of 10 repetitions
[3] = Table 2, 0.3 g/l of active substance, tap water (thiacloprid) or acetone/tap water 20/80% by weight (spirotetramat), 20-25° C., rel. humidity 56-60%, mean of 4-8 repetitions
[4] = Table 1, 0.18 g/l of thiacloprid in tap water, apple leaf cuticles, 20° C., rel. humidity 60%, mean of 4-8 repetitions

CCCCOCCOP(=O)(OCCOCCCC)OCCOCCCC [TBEP, tributoxyethyl phosphate]
Crop plant tolerance (crop plant): more tolerant than other alkyl ester additives
Increase in uptake of active substances compared with prior-art penetration enhancers ([1]; summary of table 3 (imidacloprid), versus TBP and TPP): advantageously higher increase in uptake of active substances than the penetration enhancers of the prior art

O=[N+]([O-])NC1=NCCN1Cc1ccc(Cl)nc1 [imidacloprid]
% Penetration after 3 h [1, 2]: 0.3%
% Penetration after 24 h [1, 2]: 0.5%

CCOC(=O)OC1=C(c2cc(C)ccc2C)C(=O)N[C@]12CC[C@@H](OC)CC2 [spirotetramat, cis-3-(2,5-dimethylphenyl)-8-methoxy-2-oxo-1-azaspiro[4.5]dec-3-en-4-yl ethyl carbonate]
% Penetration after 3 h [1, 3]: 0%
% Penetration after 48 h [1, 3]: 0.3%

N#C/N=C1\SCCN1Cc1ccc(Cl)nc1 [thiacloprid]
% Penetration after 3 h [1, 4]: 0.1%
% Penetration after 24 h [1, 4]: 0.8%
% Penetration after 3 h [1, 3]: 0.1%
% Penetration after 48 h [1, 3]: 1.0%
